Assay results as given in patent publication US12234207B2, “Halo-(3-(phenylsulfonyl)prop-1-enyl)pyridine derivative and use thereof” (Cureverse Incorporated, priority 2018, dated 2025).

Columns and labels:
Solubility in water = format: physicochemical
From the text: In the development of new drugs, the solubility of drugs is one of the very important factors associated with the bio-absorption rate. […] In addition, drugs with low solubility may crystallize in tissues or cause serious toxicity, and thus, the FDA requires additional research results on oral drugs with low solubility. Furthermore, low solubility may also be the biggest cause of failure in the development of candidate materials.

Nrf2 [1] = assay: Nrf2 functional cell-based assay (DisoveRx), luminescence; settings: relative to Compound 15
CYP 2D6 = target: T1, CYP 2D6 (Homo sapiens, UniProt P10635); assay: Inhibition of CYP activity in human liver microsomes, 2D6; format: in vitro ADME; settings: 10 μM compound, human liver microsomes 0.25 mg/mL; % activity relative to the negative control
T1 construct: from tissue; host or cells: human liver microsomes
Procedure: (§1) Thereafter, the reaction was terminated by adding an acetonitrile solution containing an internal standard substrate (terfenadine), followed by centrifugation (14,000 rpm, 4° C.) for 5 minutes. Subsequently, the supernatant was injected into the LC-MS/MS system, and the metabolites of the substrate drugs were simultaneously analyzed to evaluate the inhibitory ability of these compounds on drug metabolic enzymes. The metabolites of each CYP isoenzyme indicator drug generated through the above reaction were analyzed using the Shimadzu Nexera XR system and TSQ vantage (Thermo). A Kinetex C18 column was used as the HPLC column, and distilled water containing 0.1% formic acid and acetonitrile containing 0.1% formic acid were used as the mobile phase. The generated metabolites were quantified using the quantification mode of multiple reaction monitoring (MRM), and data were analyzed with Xcalibur (version 1.6.1).

CYP 1A2 = target: T2, CYP 1A2 (Homo sapiens, UniProt P05177); assay: Inhibition of CYP activity in human liver microsomes, 1A2; format: in vitro ADME; settings: 10 μM compound, human liver microsomes 0.25 mg/mL; % activity relative to the negative control
T2 construct: from tissue; host or cells: human liver microsomes
T2 sequence (P05177 1-516): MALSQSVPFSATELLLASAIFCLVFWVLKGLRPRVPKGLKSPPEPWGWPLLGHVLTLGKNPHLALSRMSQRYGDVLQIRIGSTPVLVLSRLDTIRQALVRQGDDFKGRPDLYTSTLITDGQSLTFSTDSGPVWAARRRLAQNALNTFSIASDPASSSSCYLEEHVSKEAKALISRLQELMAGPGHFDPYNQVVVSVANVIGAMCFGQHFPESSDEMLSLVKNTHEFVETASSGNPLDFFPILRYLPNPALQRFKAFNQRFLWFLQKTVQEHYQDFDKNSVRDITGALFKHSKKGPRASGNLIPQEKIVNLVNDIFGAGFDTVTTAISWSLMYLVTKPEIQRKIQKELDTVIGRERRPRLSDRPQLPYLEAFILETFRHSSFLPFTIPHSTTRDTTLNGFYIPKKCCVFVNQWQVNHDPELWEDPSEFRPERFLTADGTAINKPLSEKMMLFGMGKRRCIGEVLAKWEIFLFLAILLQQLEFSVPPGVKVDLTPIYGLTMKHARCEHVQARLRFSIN
Procedure: as §1

CYP 2C9 = target: T3, CYP 2C9 (Homo sapiens, UniProt P11712); assay: Inhibition of CYP activity in human liver microsomes, 2C9; format: in vitro ADME; settings: 10 μM compound, human liver microsomes 0.25 mg/mL; % activity relative to the negative control
T3 construct: from tissue; host or cells: human liver microsomes
Procedure: as §1

CYP 3A4 = target: T4, CYP 3A4 (Homo sapiens, UniProt P08684); assay: Inhibition of CYP activity in human liver microsomes, 3A4; format: in vitro ADME; settings: 10 μM compound, human liver microsomes 0.25 mg/mL; % activity relative to the negative control
T4 construct: from tissue; host or cells: human liver microsomes
Procedure: as §1

CYP 2C19 = target: T5, CYP 2C19 (Homo sapiens, UniProt P33261); assay: Inhibition of CYP activity in human liver microsomes, 2C19; format: in vitro ADME; settings: 10 μM compound, human liver microsomes 0.25 mg/mL; % activity relative to the negative control
T5 construct: from tissue; host or cells: human liver microsomes
Procedure: as §1

Nrf2 [2] = assay: Nrf2 functional cell-based assay (DisoveRx), luminescence; settings: for EC50: U2OS cells, 6 hours incubation, concentration that activates by 50% relative to the maximum effect
Procedure: In order to confirm the pharmacological activity of the compounds synthesized according to Examples 1 to 18 of the present invention, the effects of the synthesized derivatives on inducing the activity of Nrf2, a major regulator of the defense against oxidative stress, were evaluated by constructing an Nrf2 functional cell-based assay (DisoveRx). Specifically, U2OS cells were used, and after the cell pellet was released with CP 0 reagent, the cells were loaded in an amount of 80 μL into a 96-well plate at a density of 1.5×10^4 cells/well and incubated for 24 hours. The compounds synthesized according to Examples 1 to 18 were diluted 3 times in DMSO at 7 different concentrations to prepare a stock solution. 10 μL. of each compound solution was mixed with 90 μL of CP 0 and added in an amount of 20 μL to each well of the 96-well plate, and each experiment was repeated three times. […] Substrate reagents 1 and 2 were added to the cell assay buffer and mixed, and then 50 μL of the substrate reagent was added to a 96-well plate per well, wrapped in foil, and incubated for 1 hour. Thereafter, the luminescence value was measured at all wavelengths and at integration time of 100 ms using a luminescence spectrophotometer (Molecular Devices). […] The results are shown in Table 5 below, and the efficacy of the compounds was compared as a percentage with respect to the sulforaphane-treated group. As another control group, a chalcone derivative, VSC2 ((F)-1-(2-((2-methoxyphenyl)sulfonyl)vinyl)-2-chlorobenzene, Woo et al., J. Med. Chem., 2014, 57:1473-1487), which has a parent structure similar to that of the present invention, and which has been confirmed to induce activation of Nrf2 through the structural changes of Keap1, was used.

T4 sequence (P08684 whole entry): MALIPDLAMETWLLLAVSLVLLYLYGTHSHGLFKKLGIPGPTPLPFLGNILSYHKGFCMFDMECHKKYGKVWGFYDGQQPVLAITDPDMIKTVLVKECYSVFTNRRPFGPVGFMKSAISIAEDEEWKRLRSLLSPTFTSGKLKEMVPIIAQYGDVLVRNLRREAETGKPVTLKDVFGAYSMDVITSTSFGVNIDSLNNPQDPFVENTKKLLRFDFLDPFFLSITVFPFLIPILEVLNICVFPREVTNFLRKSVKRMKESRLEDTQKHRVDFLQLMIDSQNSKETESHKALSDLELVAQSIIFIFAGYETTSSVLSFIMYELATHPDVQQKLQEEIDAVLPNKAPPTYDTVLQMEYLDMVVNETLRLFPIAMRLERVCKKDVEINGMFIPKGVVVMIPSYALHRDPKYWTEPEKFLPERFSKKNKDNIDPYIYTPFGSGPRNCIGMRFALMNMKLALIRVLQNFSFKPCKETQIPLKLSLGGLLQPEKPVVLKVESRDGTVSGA
T3 sequence (P11712 whole entry): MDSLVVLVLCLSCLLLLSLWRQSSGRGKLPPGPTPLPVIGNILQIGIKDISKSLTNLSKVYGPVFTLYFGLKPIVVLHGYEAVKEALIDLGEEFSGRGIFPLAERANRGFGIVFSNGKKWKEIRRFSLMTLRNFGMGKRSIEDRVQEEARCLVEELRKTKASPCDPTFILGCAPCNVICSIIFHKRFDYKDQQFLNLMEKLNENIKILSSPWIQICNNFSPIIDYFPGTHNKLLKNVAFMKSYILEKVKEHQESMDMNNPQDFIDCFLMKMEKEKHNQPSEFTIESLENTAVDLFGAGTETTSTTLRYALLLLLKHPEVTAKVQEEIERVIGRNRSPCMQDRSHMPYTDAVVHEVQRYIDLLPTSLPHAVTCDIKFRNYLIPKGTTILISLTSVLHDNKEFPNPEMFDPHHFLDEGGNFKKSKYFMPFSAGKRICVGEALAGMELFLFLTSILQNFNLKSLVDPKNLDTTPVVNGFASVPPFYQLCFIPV
T5 sequence (P33261 whole entry): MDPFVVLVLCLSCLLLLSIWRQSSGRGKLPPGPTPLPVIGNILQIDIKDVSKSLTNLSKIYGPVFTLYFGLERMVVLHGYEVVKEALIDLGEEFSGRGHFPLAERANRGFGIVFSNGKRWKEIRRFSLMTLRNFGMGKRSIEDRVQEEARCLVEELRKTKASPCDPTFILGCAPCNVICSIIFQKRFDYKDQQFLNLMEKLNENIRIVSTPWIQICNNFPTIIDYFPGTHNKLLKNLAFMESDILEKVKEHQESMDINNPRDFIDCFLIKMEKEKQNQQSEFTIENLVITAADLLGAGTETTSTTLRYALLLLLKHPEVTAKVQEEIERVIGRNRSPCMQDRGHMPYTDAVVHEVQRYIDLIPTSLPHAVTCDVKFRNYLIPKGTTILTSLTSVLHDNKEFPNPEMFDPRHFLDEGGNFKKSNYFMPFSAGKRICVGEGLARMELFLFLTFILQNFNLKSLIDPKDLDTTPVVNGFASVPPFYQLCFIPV
T1 sequence (P10635 whole entry): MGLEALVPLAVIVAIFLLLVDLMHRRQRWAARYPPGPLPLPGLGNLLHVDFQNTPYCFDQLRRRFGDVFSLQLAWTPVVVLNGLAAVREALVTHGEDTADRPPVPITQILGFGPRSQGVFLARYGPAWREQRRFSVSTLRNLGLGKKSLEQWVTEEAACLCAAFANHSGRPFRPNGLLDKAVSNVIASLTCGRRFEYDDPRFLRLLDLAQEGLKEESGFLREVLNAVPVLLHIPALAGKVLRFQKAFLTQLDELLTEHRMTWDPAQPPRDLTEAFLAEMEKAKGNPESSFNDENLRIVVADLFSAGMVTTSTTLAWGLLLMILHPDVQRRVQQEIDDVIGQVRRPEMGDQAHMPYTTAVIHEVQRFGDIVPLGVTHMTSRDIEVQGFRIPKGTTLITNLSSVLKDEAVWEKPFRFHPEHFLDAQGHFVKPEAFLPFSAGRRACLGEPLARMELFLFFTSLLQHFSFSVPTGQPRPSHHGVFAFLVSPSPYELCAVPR

COc1ccccc1S(=O)(=O)/C=C/c1cccnc1Cl [Comparative Example 2, (E)-2-chloro-3-(2-(2-methoxyphenylsulfonyl)vinyl)pyridine, reference compound]
solubility (Solubility in water): < 10 µg/mL | Effect of inducing Nrf2 activity as % of the level of Compound 15 (Nrf2 [1]): ~10%

O=S(=O)(/C=C/c1ncccc1F)c1ccccc1F [Compound 1, (E)-3-fluoro-2-(2-(2-fluorophenylsulfonyl)vinyl)pyridine]
CYP 2D6 activity (CYP 2D6): 87.0% | CYP 1A2 activity (CYP 1A2): 96.0% | CYP 2C9 activity (CYP 2C9): 100.0% | CYP 3A4 activity (CYP 3A4): 100.0% | CYP 2C19 activity (CYP 2C19): 65.9% | EC50 (Nrf2 [2]): 176 nM

O=S(=O)(/C=C/c1ncccc1F)c1cccc(F)c1 [Compound 2, (E)-3-fluoro-2-(2-(3-fluorophenylsulfonyl)vinyl)pyridine]
EC50 (Nrf2 [2]): 474 nM

O=S(=O)(/C=C/c1ncccc1F)c1ccc(F)cc1 [Compound 3, (E)-3-fluoro-2-(2-(4-fluorophenylsulfonyl)vinyl)pyridine]
EC50 (Nrf2 [2]): 542 nM

O=S(=O)(/C=C/c1ncccc1Cl)c1ccccc1F [Compound 4, (E)-3-chloro-2-(2-(2-fluorophenylsulfonyl)vinyl)pyridine]
CYP 2D6 activity (CYP 2D6): 86.0% | CYP 1A2 activity (CYP 1A2): 96.0% | CYP 2C9 activity (CYP 2C9): 62.6% | CYP 3A4 activity (CYP 3A4): 100.0% | CYP 2C19 activity (CYP 2C19): 47.3% | EC50 (Nrf2 [2]): 30 nM

O=S(=O)(/C=C/c1ncccc1Cl)c1cccc(F)c1 [Compound 5, (E)-3-chloro-2-(2-(3-fluorophenylsulfonyl)vinyl)pyridine]
EC50 (Nrf2 [2]): 84 nM

O=S(=O)(/C=C/c1ncccc1Cl)c1ccc(F)cc1 [Compound 6, (E)-3-chloro-2-(2-(4-fluorophenylsulfonyl)vinyl)pyridine]
EC50 (Nrf2 [2]): 231 nM

O=S(=O)(/C=C/c1ncccc1F)c1ccccc1Cl [Compound 7, (E)-2-(2-(2-chlorophenylsulfonyl)vinyl)-3-fluoropyridine]
EC50 (Nrf2 [2]): 122 nM

O=S(=O)(/C=C/c1ncccc1F)c1cccc(Cl)c1 [Compound 8, (E)-2-(2-(3-chlorophenylsulfonyl)vinyl)-3-fluoropyridine]
EC50 (Nrf2 [2]): 198 nM

O=S(=O)(/C=C/c1ncccc1F)c1ccc(Cl)cc1 [Compound 9, (E)-2-(2-(4-chlorophenylsulfonyl)vinyl)-3-fluoropyridine]
EC50 (Nrf2 [2]): 286 nM

O=S(=O)(/C=C/c1ncccc1Cl)c1ccccc1Cl [Compound 10, (E)-3-chloro-2-(2-(2-chlorophenylsulfonyl)vinyl)pyridine]
EC50 (Nrf2 [2]): 26 nM | Nrf2 activation effect relative to sulforaphane (Nrf2 [2]; ratio to sulforaphane): ≥ 15 times

O=S(=O)(/C=C/c1ncccc1Cl)c1cccc(Cl)c1 [Compound 11, (E)-3-chloro-2-(2-(3-chlorophenylsulfonyl)vinyl)pyridine]
EC50 (Nrf2 [2]): 46 nM

O=S(=O)(/C=C/c1ncccc1Cl)c1ccc(Cl)cc1 [Compound 12, (E)-3-chloro-2-(2-(4-chlorophenylsulfonyl)vinyl)pyridine]
EC50 (Nrf2 [2]): 65 nM

O=S(=O)(/C=C/c1cccc(Cl)n1)c1ccccc1Cl [Compound 13, (E)-2-chloro-6-(2-(2-chlorophenylsulfonyl)vinyl)pyridine]
CYP 2D6 activity (CYP 2D6): 100.0% | CYP 1A2 activity (CYP 1A2): 94.0% | CYP 2C9 activity (CYP 2C9): 100.0% | CYP 3A4 activity (CYP 3A4): 86.0% | CYP 2C19 activity (CYP 2C19): 40.0% | EC50 (Nrf2 [2]): 147 nM

O=S(=O)(/C=C/c1cccnc1Cl)c1ccccc1Cl [Compound 14, (E)-2-chloro-3-(2-(2-chlorophenylsulfonyl)vinyl)pyridine]
EC50 (Nrf2 [2]): 384 nM

CN1CCN(C(=O)COc2ccc(S(=O)(=O)/C=C/c3ncccc3F)cc2)CC1.Cl [Compound 17, (E)-2-(4-(2-(3-fluoropyridin-2-yl)vinylsulfonyl)phenoxy)-1-(4-methylpiperazin-1-yl)ethanone hydrochloride]
CYP 2C9 activity (CYP 2C9): 122.0%
